From US9896439B2, “Pyrazole-substituted arylamides as P2X3 and P2X2/3 antagonists” (Roche Palo Alto LLC, priority 2007, dated 2018)

What was measured:
[1] = biological target: T1, rat P2X3 receptor (Rattus norvegicus, UniProt P49654); assay: P2X3 FLIPR (Fluorometric Imaging Plate Reader) assay; format: cell-based; settings: CHO-K1 cells transfected with cloned rat P2X3; agonist α,β-meATP 1 μM; Fluo-3 AM fluorescence; read-out: pIC50 for the P2X3 receptor (converted)
T1 construct: expressed in transfected cells; host or cells: CHO-K1
T1 sequence (P49654 1-397): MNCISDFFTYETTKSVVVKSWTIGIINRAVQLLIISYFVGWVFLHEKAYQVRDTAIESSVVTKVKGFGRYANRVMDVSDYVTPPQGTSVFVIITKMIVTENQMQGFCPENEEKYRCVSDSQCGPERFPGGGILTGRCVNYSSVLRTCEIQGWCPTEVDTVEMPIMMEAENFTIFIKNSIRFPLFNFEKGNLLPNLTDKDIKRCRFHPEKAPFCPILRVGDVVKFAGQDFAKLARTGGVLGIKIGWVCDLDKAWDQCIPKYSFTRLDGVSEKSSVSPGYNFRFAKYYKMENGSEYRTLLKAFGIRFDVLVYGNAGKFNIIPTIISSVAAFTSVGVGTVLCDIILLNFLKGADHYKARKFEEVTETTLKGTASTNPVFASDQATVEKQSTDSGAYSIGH
Experimental: (§1) CHO-K1 cells were transfected with cloned rat P2X3 or human P2X2/3 receptor subunits and passaged in flasks. 18-24 hours before the FLIPR experiment, cells were released from their flasks, centrifuged, and resuspended in nutrient medium at 2.5×10^5 cells/ml. The cells were aliquoted into black-walled 96-well plates at a density of 50,000 cells/well and incubated overnight in 5% CO2 at 37° C. On the day of the experiment, cells were washed in FLIPR buffer (calcium- and magnesium-free Hank's balanced salt solution, 10 mM HEPES, 2 mM CaCl2, 2.5 mM probenecid; FB). Each well received 100 μl FB and 100 μl of the fluorescent dye Fluo-3 AM [2 μM final conc.]. […]
(§2) Test compounds (dissolved in DMSO at 10 mM and serially diluted with FB) or vehicle were added to each well (25 μl of a 4× solution) and allowed to equilibrate for 20 minutes at room temperature. The plates were then placed in the FLIPR and a baseline fluorescence measurement (excitation at 488 nm and emission at 510-570 nm) was obtained for 10 seconds before a 100 μl/well agonist or vehicle addition. […] Fluorescence was measured for an additional 2 minutes at 1 second intervals after agonist addition. A final addition of ionomycin (5 μM, final concentration) was made to each well of the FLIPR test plate to establish cell viability and maximum fluorescence of dye-bound cytosolic calcium. […]

[2] = biological target: T2, human P2X2/3 receptor (Homo sapiens, UniProt P56373+Q9UBL9); assay: P2X2/3 FLIPR (Fluorometric Imaging Plate Reader) assay; format: cell-based; settings: CHO-K1 cells transfected with human P2X2/3; agonist α,β-meATP 5 μM; Fluo-3 AM fluorescence; read-out: pKi for the P2X2/3 receptor (converted)
T2 construct: expressed in transfected cells; host or cells: CHO-K1
T2 sequence (Q9UBL9 1-471): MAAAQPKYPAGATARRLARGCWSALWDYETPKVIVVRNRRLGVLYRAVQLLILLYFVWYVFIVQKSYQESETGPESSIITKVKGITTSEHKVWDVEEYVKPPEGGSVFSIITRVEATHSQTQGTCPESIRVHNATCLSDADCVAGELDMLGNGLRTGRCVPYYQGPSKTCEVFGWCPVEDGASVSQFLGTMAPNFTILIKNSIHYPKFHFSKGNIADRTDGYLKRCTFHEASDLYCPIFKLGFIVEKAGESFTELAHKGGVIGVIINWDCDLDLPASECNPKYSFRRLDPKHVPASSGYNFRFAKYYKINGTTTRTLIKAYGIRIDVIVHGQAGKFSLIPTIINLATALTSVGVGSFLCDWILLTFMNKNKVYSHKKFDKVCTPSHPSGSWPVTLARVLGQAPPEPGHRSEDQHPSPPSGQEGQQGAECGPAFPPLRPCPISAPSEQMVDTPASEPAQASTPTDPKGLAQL
T2 sequence (P56373 1-397): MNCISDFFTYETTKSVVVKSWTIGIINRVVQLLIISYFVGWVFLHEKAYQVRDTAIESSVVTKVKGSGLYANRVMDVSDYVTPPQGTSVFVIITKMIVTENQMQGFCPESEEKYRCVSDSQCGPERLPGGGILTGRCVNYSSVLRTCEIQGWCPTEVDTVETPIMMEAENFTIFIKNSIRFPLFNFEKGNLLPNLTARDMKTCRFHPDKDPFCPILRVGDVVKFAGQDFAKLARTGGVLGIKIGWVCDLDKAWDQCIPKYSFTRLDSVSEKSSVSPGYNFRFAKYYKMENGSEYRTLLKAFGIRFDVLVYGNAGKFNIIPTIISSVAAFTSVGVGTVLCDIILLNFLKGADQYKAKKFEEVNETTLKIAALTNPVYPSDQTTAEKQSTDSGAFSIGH
Experimental: as §1, §2

IC50 [1] [nM]	Ki [2] [nM]	Compound
~2.14	–	Cc1ccc(-c2cc(C(=O)N[C@@H](C)CO)cc(-c3ccnn3C3CCC3)c2)nc1 [Compound 70, 3-(2-Cyclobutyl-2H-pyrazol-3-yl)-N-((S)-2-hydroxy-1-methyl-ethyl)-5-(5-methyl-pyridin-2-yl)-benzamide]
–	~21.4	Cc1ccc(-c2cc(C(=O)NCc3ccc(C)nn3)cc(-n3nccc3CC(C)C)c2)nc1 [Compound 101, 3-(5-Isobutyl-pyrazol-1-yl)-N-(6-methyl-pyridazin-3-ylmethyl)-5-(5-methyl-pyridin-2-yl)-benzamide]
